Source: patent publication US8034767B2, “Method for producing purine nucleosides and nucleotides by fermentation using a bacterium belonging to the genus Escherichia or Bacillus” (priority 2006, dated 2011)

Columns and labels:
E. coli strain TG1 = experiment: MIC of purine base analogues on M9 glucose minimal agar plates, parental strain; type: cell-based; conditions: Escherichia coli, 10^5 to 10^6 cells spotted, growth after 44 h at 37° C.
Procedure: (§1) The minimal inhibitory concentrations (MIC) of purine base analogues for the strain TG1::PnlpD-yeaS and the parental strain TG1 were determined on M9 glucose minimal agar plates containing graded concentrations of inhibitors. The plates were spotted with 10^5 to 10^6 cells from an overnight culture grown in a minimal medium. The growth was estimated after 44 h incubation at 37° C.

[1] = tested on: E. coli strain TG1::PnlpD-yeaS; experiment: MIC of purine base analogues on M9 glucose minimal agar plates, yeaS-overexpressing strain; type: cell-based; conditions: Escherichia coli, 44 h, read-out: MIC for E. coli strain TG1::PnlpD-yeaS
Procedure: as §1

Compound	MIC (E. coli strain TG1) [µg/mL]	MIC [1] [µg/mL]
Nc1nc(N)c2[nH]cnc2n1 [2,6-diaminopurine]	200	600
Sc1ncnc2nc[nH]c12 [6-mercaptopurine]	50	150
Nc1nc2nc[nH]c2c(=S)[nH]1 [6-thioguanine]	30	450
Nc1ncnc2nn[nH]c12 [8-azaadenine]	100	250
